Reference: patent US20030165854A1, “Marker genes responding to treatment with toxins” (priority 2000, published 2003)
Read-outs that look alike come from different tables or passages of the source.

Columns and labels:
[1] = tested on: rat liver cDNAs SEQ ID NOs: 1-61; format: in vivo, Han/Wistar rat; settings: Strain HW
[2] = tested on: rat liver cDNAs SEQ ID NOs: 1-61; format: in vivo, Han/Wistar rat; settings: Strain HW, Sex F
[3] = tested on: P450 3A2; assay: Gene expression (fold change) of known genes in toxin-treated rat liver, cDNA library transcript imaging; format: in vivo; settings: clofibrate-treated rat liver, vs untreated liver
[4] = tested on: rat liver cDNAs SEQ ID NOs: 62-202; assay: Abundance of cDNA clones in toxin-treated rat liver cDNA libraries (transcript imaging), Sprague-Dawley; format: in vivo; settings: Strain SD
Procedure: Columns 1 and 2 show the SEQ ID NO and Clone ID of the rat cDNA clone, respectively.
Abundance of a clone was determined by counting the number of clones present in a master cluster.
Abundance of a particular cDNA in the library profile was determined by summing the total number of copies of the clones present in the master cluster in that library.

[5] = tested on: P450 4A; settings: clofibrate-treated rat liver, vs untreated liver
[6] = tested on: P450 LA-omega 4A3; assay: Gene expression (fold change) of known genes in toxin-treated rat liver, cDNA library transcript imaging; settings: clofibrate-treated rat liver, vs untreated liver

NN [Hydra, hydrazine]
3: Maximum Abundance, SEQ ID NO 23, Clone ID 700067778 [1] | Maximum Abundance, SEQ ID NO 24, Clone ID 700123633 [1] | Maximum Abundance, SEQ ID NO 28, Clone ID 700135850 [1] | Maximum Abundance, SEQ ID NO 12, Clone ID 700062506 [2]
4: Maximum Abundance, SEQ ID NO 17, Clone ID 700059927 [1] | Maximum Abundance, SEQ ID NO 32, Clone ID 700144406 [1] | Maximum Abundance, SEQ ID NO 61, Clone ID 701637512 [1] | Maximum Abundance, SEQ ID NO 13, Clone ID 700135749 [2]
7: Maximum Abundance, SEQ ID NO 33, Clone ID 700175249 [1]

CCOC(=O)C(C)(C)Oc1ccc(Cl)cc1 [clofibrate]
0.47 fold change: Gene expression (fold change) P450 LA-omega 4A3 ([6]; 28 days)
0.5 fold change: Gene expression (fold change) P450 4A ([5]; 7 days) | Gene expression (fold change) P450 LA-omega 4A3 ([6]; 7 days)
1.3 fold change: Gene expression (fold change) P450 4A ([5]; 28 days)
6: Maximum Abundance, SEQ ID NO 9, Clone ID 700308908 [1] | Maximum Abundance, SEQ ID NO 164, Clone ID 700122008 [4] | Maximum Abundance, SEQ ID NO 180, Clone ID 701429135 [4] | Maximum Abundance, SEQ ID NO 186, Clone ID 700068662 [4] | Maximum Abundance, SEQ ID NO 134, Clone ID 700928985 ([4]; Sex M)
26.6 fold change: Gene expression (fold change) P450 LA-omega 4A3 ([6]; 24 hours)
1.2 fold change: Gene expression (fold change) P450 3A2 ([3]; 24 hours)
0.14 fold change: Gene expression (fold change) P450 3A2 ([3]; 12 hours)
1.1 fold change: Gene expression (fold change) P450 LA-omega 4A3 ([6]; 3 days)
0.63 fold change: Gene expression (fold change) P450 3A2 ([3]; 3 days)
14.8 fold change: Gene expression (fold change) P450 LA-omega 4A3 ([6]; 12 hours)
4: Maximum Abundance, SEQ ID NO 11, Clone ID 700131403 [1] | Maximum Abundance, SEQ ID NO 10, Clone ID 700139239 ([1]; Sex M) | Maximum Abundance, SEQ ID NO 111, Clone ID 700269330 [4] | Maximum Abundance, SEQ ID NO 163, Clone ID 700025278 [4] | Maximum Abundance, SEQ ID NO 166, Clone ID 700144043 [4] | Maximum Abundance, SEQ ID NO 168, Clone ID 700247621 [4] | Maximum Abundance, SEQ ID NO 173, Clone ID 700323707 [4] | Maximum Abundance, SEQ ID NO 174, Clone ID 700513589 [4] | Maximum Abundance, SEQ ID NO 113, Clone ID 700230724 ([4]; Sex F) | Maximum Abundance, SEQ ID NO 114, Clone ID 700307025 ([4]; Sex F) | Maximum Abundance, SEQ ID NO 120, Clone ID 701396706 ([4]; Sex F) | Maximum Abundance, SEQ ID NO 126, Clone ID 700122019 ([4]; Sex M) | Maximum Abundance, SEQ ID NO 127, Clone ID 700276321 ([4]; Sex M) | Maximum Abundance, SEQ ID NO 132, Clone ID 700510701 ([4]; Sex M) | Maximum Abundance, SEQ ID NO 135, Clone ID 700931410 ([4]; Sex M) | Maximum Abundance, SEQ ID NO 136, Clone ID 701093657 ([4]; Sex M) | Maximum Abundance, SEQ ID NO 138, Clone ID 701264516 ([4]; Sex M) | Maximum Abundance, SEQ ID NO 139, Clone ID 701341715 ([4]; Sex M) | Maximum Abundance, SEQ ID NO 140, Clone ID 701434939 ([4]; Sex M) | Maximum Abundance, SEQ ID NO 142, Clone ID 701463285 ([4]; Sex M) | Maximum Abundance, SEQ ID NO 143, Clone ID 701605992 ([4]; Sex M) | Maximum Abundance, SEQ ID NO 145, Clone ID 701737221 ([4]; Sex M) | Maximum Abundance, SEQ ID NO 148, Clone ID 701922375 ([4]; Sex M) | Maximum Abundance, SEQ ID NO 149, Clone ID 701922439 ([4]; Sex M) | Maximum Abundance, SEQ ID NO 150, Clone ID 701922513 ([4]; Sex M) | Maximum Abundance, SEQ ID NO 151, Clone ID 701922576 ([4]; Sex M) | Maximum Abundance, SEQ ID NO 154, Clone ID 701922744 ([4]; Sex M) | Maximum Abundance, SEQ ID NO 158, Clone ID 701923218 ([4]; Sex M) | Maximum Abundance, SEQ ID NO 159, Clone ID 701923240 ([4]; Sex M) | Maximum Abundance, SEQ ID NO 162, Clone ID 701925484 ([4]; Sex M)
7.0 fold change: Gene expression (fold change) P450 4A ([5]; 12 hours)
16.6 fold change: Gene expression (fold change) P450 4A ([5]; 24 hours)
1.4 fold change: Gene expression (fold change) P450 4A ([5]; 3 days)
3: Maximum Abundance, SEQ ID NO 165, Clone ID 700136662 [4] | Maximum Abundance, SEQ ID NO 167, Clone ID 700177423 [4] | Maximum Abundance, SEQ ID NO 169, Clone ID 700251379 [4] | Maximum Abundance, SEQ ID NO 171, Clone ID 700306859 [4] | Maximum Abundance, SEQ ID NO 172, Clone ID 700307013 [4] | Maximum Abundance, SEQ ID NO 175, Clone ID 700538641 [4] | Maximum Abundance, SEQ ID NO 176, Clone ID 700592657 [4] | Maximum Abundance, SEQ ID NO 177, Clone ID 701190918 [4] | Maximum Abundance, SEQ ID NO 178, Clone ID 701313456 [4] | Maximum Abundance, SEQ ID NO 179, Clone ID 701397319 [4] | Maximum Abundance, SEQ ID NO 181, Clone ID 701429654 [4] | Maximum Abundance, SEQ ID NO 182, Clone ID 701458841 [4] | Maximum Abundance, SEQ ID NO 183, Clone ID 701470083 [4] | Maximum Abundance, SEQ ID NO 184, Clone ID 701562608 [4] | Maximum Abundance, SEQ ID NO 201, Clone ID 700062503 [4] | Maximum Abundance, SEQ ID NO 115, Clone ID 700361295 ([4]; Sex F) | Maximum Abundance, SEQ ID NO 116, Clone ID 700420930 ([4]; Sex F) | Maximum Abundance, SEQ ID NO 117, Clone ID 700526706 ([4]; Sex F) | Maximum Abundance, SEQ ID NO 118, Clone ID 700635732 ([4]; Sex F) | Maximum Abundance, SEQ ID NO 119, Clone ID 700824178 ([4]; Sex F) | Maximum Abundance, SEQ ID NO 121, Clone ID 701475987 ([4]; Sex F) | Maximum Abundance, SEQ ID NO 122, Clone ID 701621131 ([4]; Sex F) | Maximum Abundance, SEQ ID NO 123, Clone ID 701879551 ([4]; Sex F) | Maximum Abundance, SEQ ID NO 124, Clone ID 701883446 ([4]; Sex F) | Maximum Abundance, SEQ ID NO 125, Clone ID 701883859 ([4]; Sex F) | Maximum Abundance, SEQ ID NO 189, Clone ID 700064545 ([4]; Sex F) | Maximum Abundance, SEQ ID NO 191, Clone ID 700146747 ([4]; Sex F) | Maximum Abundance, SEQ ID NO 192, Clone ID 700589657 ([4]; Sex F) | Maximum Abundance, SEQ ID NO 128, Clone ID 700323126 ([4]; Sex M) | Maximum Abundance, SEQ ID NO 129, Clone ID 700324604 ([4]; Sex M) | Maximum Abundance, SEQ ID NO 130, Clone ID 700363120 ([4]; Sex M) | Maximum Abundance, SEQ ID NO 131, Clone ID 700364810 ([4]; Sex M) | Maximum Abundance, SEQ ID NO 137, Clone ID 701259518 ([4]; Sex M) | Maximum Abundance, SEQ ID NO 141, Clone ID 701460429 ([4]; Sex M) | Maximum Abundance, SEQ ID NO 144, Clone ID 701737185 ([4]; Sex M) | Maximum Abundance, SEQ ID NO 146, Clone ID 701920170 ([4]; Sex M) | Maximum Abundance, SEQ ID NO 147, Clone ID 701922204 ([4]; Sex M) | Maximum Abundance, SEQ ID NO 152, Clone ID 701922583 ([4]; Sex M) | Maximum Abundance, SEQ ID NO 153, Clone ID 701922711 ([4]; Sex M) | Maximum Abundance, SEQ ID NO 155, Clone ID 701922971 ([4]; Sex M) | Maximum Abundance, SEQ ID NO 157, Clone ID 701923022 ([4]; Sex M) | Maximum Abundance, SEQ ID NO 160, Clone ID 701923241 ([4]; Sex M) | Maximum Abundance, SEQ ID NO 161, Clone ID 701923330 ([4]; Sex M) | Maximum Abundance, SEQ ID NO 194, Clone ID 700060595 ([4]; Sex M) | Maximum Abundance, SEQ ID NO 195, Clone ID 700061212 ([4]; Sex M) | Maximum Abundance, SEQ ID NO 197, Clone ID 700124248 ([4]; Sex M) | Maximum Abundance, SEQ ID NO 198, Clone ID 700252787 ([4]; Sex M) | Maximum Abundance, SEQ ID NO 199, Clone ID 700272719 ([4]; Sex M) | Maximum Abundance, SEQ ID NO 200, Clone ID 700282789 ([4]; Sex M)
0.45 fold change: Gene expression (fold change) P450 3A2 ([3]; 28 days)
0.50 fold change: Gene expression (fold change) P450 3A2 ([3]; 7 days)
1: Maximum Abundance, SEQ ID NO 193, Clone ID 700858043 ([4]; Sex F)
5: Maximum Abundance, SEQ ID NO 110, Clone ID 700192259 [4] | Maximum Abundance, SEQ ID NO 112, Clone ID 701317696 [4] | Maximum Abundance, SEQ ID NO 170, Clone ID 700272988 [4] | Maximum Abundance, SEQ ID NO 185, Clone ID 701884534 [4] | Maximum Abundance, SEQ ID NO 187, Clone ID 700933309 [4] | Maximum Abundance, SEQ ID NO 133, Clone ID 700810877 ([4]; Sex M) | Maximum Abundance, SEQ ID NO 156, Clone ID 701923019 ([4]; Sex M)
11: Maximum Abundance, SEQ ID NO 109, Clone ID 700250903 ([4]; Sex M)
2: Maximum Abundance, SEQ ID NO 188, Clone ID 700024288 ([4]; Sex F) | Maximum Abundance, SEQ ID NO 190, Clone ID 700066933 ([4]; Sex F) | Maximum Abundance, SEQ ID NO 196, Clone ID 700062747 ([4]; Sex M)
